The text below walks through data of article PMC10110569, “Structure and mechanism of the alkane-oxidizing enzyme AlkB” (Nature Communications, 2023).

The target in one assay is T1, FtAlkB (Fontimonas thermophila, UniProt A0A1I2KHB9).
T1 construct: gene SAMN04488120_1209; residues 4-399, codon optimized, pRSF vector, E. coli BL21 (DE3), 3C protease digestion (tag cut), DDM-solubilized; 45 kD; cryo-EM with nanobody AP32; lysate assays with AlkG and AlkT as redox partners
T1 sequence (A0A1I2KHB9 4-399): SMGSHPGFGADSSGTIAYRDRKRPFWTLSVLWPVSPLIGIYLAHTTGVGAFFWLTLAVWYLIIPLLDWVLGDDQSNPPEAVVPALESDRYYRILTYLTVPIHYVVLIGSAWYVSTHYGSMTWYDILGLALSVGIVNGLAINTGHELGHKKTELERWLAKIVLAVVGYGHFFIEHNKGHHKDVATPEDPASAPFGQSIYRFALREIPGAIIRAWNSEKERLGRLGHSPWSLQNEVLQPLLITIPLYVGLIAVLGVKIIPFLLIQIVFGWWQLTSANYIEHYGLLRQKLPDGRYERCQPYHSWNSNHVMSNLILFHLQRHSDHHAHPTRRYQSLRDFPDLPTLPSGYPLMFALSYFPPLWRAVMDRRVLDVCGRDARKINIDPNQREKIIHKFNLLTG
As to the kind of experiment: GC-MS alkane hydroxylation assay, purified enzyme. Format: biochemical. Particulars: purified AlkG, maize ferredoxin reductase, NADPH; 37 °C.

The target of assay [1] is T2, Fontimonas thermophila alkane monooxygenase AlkB (FtAlkB), amino acids 4-399 (Fontimonas thermophila).
T2 construct: Alkane monooxygenase AlkB of Fontimonas thermophila, amino acids 4-399, codon optimized, in pRSF vector; Membrane protein kept in DDM (0.02% in SEC buffer); source: E. coli BL21 (DE3), solubilized in 1% DDM, purified (cobalt resin, 3C protease digestion, SEC)
T2 chain: T1 sequence (A0A1I2KHB9 4-399)
As to the kind of experiment: cryo-EM structure; FtAlkB-nanobody AP32 complex in 20 mM HEPES pH 7.4, 150 mM NaCl, 0.02% DDM; single-particle cryo-EM, 3.59 Å for FtAlkB-nanobody (3.45 Å with a mask on FtAlkB only). The settings on record: both partners purified.

Turning to `CCCCCCCC` [octane], at FtAlkB, the “GC-MS alkane hydroxylation assay, purified enzyme” value is given as “FtAlkB displayed robust alkane hydroxylase activities on a model alkane octane”.

B1: Nanobody AP32 (anti-FtAlkB nanobody) (VHH)
VHH: QVQLQESGGGLVQAGGSLRLSCAASGTISRYWTMGWYRQAPGKERELVAGISEGGSTNYADSVKGRFTISRDNAKNTVYLQMNSLKPEDTAVYYCAVTYRGPWFNRDPHYYWGQGTQVTVSS
notes: Synthetic nanobody from a library after three runs of selection; the model was started from the nanobody of PDB 7SL8 with the CDRs rebuilt, so 7SL8 is not this nanobody; also called FtAlkB-specific nanobody; source: E. coli BL21 (DE3), purified
In the case of B1, in assay [1], the binding result is “binds”.
